Measured values as given in ChEMBL document CHEMBL4411335, “Identification and Optimization of Novel Small c-Abl Kinase Activators Using Fragment and HTS Methodologies” (J Med Chem, 2019).
Converted amounts (≈) assume the structure as drawn.

How the values were obtained:
[1] = target: T1, Tyrosine-protein kinase ABL1 (Homo sapiens, UniProt P00519); assay: Induction of human c-ABL phosphorylation at Y245/Y412 residues in bacmam-induced HEK-MSR2 cell lysates by in-cell Western blot analysis; assay type: subcellular, Lysate
[2] = Kinetic solubility of the compound at pH 7.4 after 1 hr by CLND-based assay; assay type: physicochemical; conditions: buffer, read-out: Kinetic_solubility
[3] = Permeability of the compound at […] after 3 hrs by artificial membrane permeability assay; assay type: ADME; conditions: PAMPA; read-out: permeability
[4] = target: Tyrosine-protein kinase ABL1 (Homo sapiens, UniProt P00519, D382N); assay: Displacement of Myr-GQQPGKVLGDQRRPSL(K-TAMRA)G-amide from N-terminal-truncated human c-ABL D382N mutant (46 to 534 residues) after 30 mins by fluorescence polarization binding assay
[5] = target: T1, Tyrosine-protein kinase ABL1; assay: Activation of full length human 6His-tagged c-Abl expressed in baculovirus expression system using abltide as substrate after 2 hrs by IMAP assay; conditions: for EC50 for c-Abl activation: read-out: pIC50 (converted)

T1 sequence (P00519 whole entry): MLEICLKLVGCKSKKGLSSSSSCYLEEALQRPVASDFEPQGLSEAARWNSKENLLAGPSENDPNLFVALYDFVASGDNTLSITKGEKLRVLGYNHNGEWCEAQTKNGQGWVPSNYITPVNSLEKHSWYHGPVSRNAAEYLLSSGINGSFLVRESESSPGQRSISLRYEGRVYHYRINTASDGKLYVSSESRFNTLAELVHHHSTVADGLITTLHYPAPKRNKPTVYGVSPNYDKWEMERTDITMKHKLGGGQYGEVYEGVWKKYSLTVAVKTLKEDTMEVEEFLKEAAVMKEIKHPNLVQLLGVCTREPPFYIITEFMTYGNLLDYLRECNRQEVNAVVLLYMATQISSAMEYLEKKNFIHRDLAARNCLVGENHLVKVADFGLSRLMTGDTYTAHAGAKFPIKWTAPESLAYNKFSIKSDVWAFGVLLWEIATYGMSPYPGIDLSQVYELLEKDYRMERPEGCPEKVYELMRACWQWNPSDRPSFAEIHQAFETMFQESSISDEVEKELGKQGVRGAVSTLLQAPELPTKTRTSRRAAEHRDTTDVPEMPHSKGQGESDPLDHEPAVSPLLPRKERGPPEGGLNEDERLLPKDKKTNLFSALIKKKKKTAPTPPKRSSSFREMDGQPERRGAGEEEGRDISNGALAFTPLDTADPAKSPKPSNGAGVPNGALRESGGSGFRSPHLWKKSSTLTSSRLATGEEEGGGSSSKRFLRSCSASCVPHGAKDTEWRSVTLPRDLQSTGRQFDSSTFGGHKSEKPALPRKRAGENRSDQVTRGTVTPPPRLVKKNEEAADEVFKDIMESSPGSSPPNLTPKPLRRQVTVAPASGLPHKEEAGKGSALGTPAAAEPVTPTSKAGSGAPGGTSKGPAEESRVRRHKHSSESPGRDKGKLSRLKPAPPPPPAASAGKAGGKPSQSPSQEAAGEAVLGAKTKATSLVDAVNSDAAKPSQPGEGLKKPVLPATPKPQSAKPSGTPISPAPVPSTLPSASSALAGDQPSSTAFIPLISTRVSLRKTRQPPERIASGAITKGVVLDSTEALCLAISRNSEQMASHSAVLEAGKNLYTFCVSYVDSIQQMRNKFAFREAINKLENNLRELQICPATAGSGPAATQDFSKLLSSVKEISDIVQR
Chain of Tyrosine-protein kinase ABL1 (Homo sapiens, UniProt P00519, D382N) (P00519 as listed by the source D382N): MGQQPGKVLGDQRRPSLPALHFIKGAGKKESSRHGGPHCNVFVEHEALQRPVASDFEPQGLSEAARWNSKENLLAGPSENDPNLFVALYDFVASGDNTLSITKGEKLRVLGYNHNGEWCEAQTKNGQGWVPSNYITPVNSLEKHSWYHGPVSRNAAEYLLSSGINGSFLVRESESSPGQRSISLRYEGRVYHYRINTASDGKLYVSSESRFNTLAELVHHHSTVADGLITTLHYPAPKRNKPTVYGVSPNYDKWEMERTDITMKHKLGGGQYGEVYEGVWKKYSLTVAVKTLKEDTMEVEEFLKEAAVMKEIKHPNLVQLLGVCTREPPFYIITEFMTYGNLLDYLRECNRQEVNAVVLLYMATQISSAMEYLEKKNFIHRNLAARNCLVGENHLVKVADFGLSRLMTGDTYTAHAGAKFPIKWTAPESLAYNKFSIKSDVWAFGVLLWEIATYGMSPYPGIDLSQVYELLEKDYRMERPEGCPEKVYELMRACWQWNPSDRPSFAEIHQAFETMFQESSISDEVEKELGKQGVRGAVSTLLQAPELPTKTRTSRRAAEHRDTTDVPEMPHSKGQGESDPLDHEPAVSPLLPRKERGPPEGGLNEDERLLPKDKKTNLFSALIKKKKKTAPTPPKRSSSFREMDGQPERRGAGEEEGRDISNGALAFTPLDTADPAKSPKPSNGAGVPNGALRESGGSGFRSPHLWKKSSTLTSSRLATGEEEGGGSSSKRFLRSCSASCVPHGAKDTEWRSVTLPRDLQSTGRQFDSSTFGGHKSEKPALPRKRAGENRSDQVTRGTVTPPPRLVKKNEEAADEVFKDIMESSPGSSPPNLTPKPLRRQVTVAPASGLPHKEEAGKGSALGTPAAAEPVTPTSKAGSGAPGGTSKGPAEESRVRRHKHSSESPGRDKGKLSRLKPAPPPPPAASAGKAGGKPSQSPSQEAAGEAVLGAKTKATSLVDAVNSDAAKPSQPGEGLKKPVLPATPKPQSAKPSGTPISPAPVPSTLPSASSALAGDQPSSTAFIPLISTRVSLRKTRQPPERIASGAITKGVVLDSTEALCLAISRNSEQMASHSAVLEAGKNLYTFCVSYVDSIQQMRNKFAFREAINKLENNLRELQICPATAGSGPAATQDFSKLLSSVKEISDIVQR

| SMILES | EC50 [1] [nM] | solubility kinetic at 1 h [2] [µM] | Papp at 3 h [3] [×10⁻⁶ cm/s] | IC50 [4] [nM] | EC50 for c-Abl activation [5] [nM] | EC50 [5] [nM] |
| --- | --- | --- | --- | --- | --- | --- |
| O=C1NC(=O)C(c2cn(-c3ccccc3)nc2-c2ccc(F)cc2)N1 (configuration not stated) | 794 | > 395 | 35 | 398 | – | – |
| CC(=O)Nc1nc(-c2ccc(Br)s2)cs1 | > 50100 | 16 (≈ 4.85 µg/mL) | 21 | 5010 | 12600 | – |
| CC(=O)Nc1nc(-c2ccc(Cl)cc2)cs1 | – | 1 (≈ 0.253 µg/mL) | 25 | 10000 | 31600 | – |
| CC(=O)Nc1nc(-c2cccc(O)c2)cs1 | – | 103 (≈ 24.1 µg/mL) | 27 | 12600 | > 50100 | – |
| O=C(NC1=NN(c2ccc(Cl)c(Cl)c2)CC1)c1ccccn1 | > 50100 | 11 (≈ 3.69 µg/mL) | 35 | 2000 | 2000 | – |
| N#CCC(=O)NC1=NN(c2ccc(Cl)c(Cl)c2)CC1 | 1000 | 202 (≈ 60 µg/mL) | 32 | 398 | 251 | – |
| Cc1ncncc1C(=O)NC1=NN(c2ccc(Cl)c(Cl)c2)CC1 | 316 | 12 (≈ 4.2 µg/mL) | 34 | 158 | 39.8 | – |
| C[C@H]1CN(c2ccc(Cl)c(Cl)c2)N=C1NC(=O)c1cncnc1 | 100 | 9 (≈ 3.15 µg/mL) | 42 | 316 | 20 | – |
| O=C(Nc1nc(-c2ccc(Cl)c(Cl)c2)cs1)c1c(F)cccc1F | 5010 | 5 (≈ 1.93 µg/mL) | < 3 | 316 | 251 | – |
| CC(=O)N[C@@H](C)C(=O)NC1=NN(c2ccc(Cl)c(Cl)c2)CC1 | 7940 | 58 (≈ 19.9 µg/mL) | 34 | 1260 | 1580 | – |
| CS(=O)(=O)Nc1nc(-c2ccc(Cl)c(Cl)c2)cs1 | > 50100 | 429 (≈ 139 µg/mL) | 22 | > 50100 | 25100 | – |
| O=C(NC1=NN(c2ccc(Cl)c(Cl)c2)CC1)c1ccncc1F | 1580 | 36 (≈ 12.7 µg/mL) | 28 | 200 | 126 | – |
| O=C(NC1=NN(c2ccc(Cl)c(Cl)c2)CC1)c1cccnn1 | > 50100 | 67 (≈ 22.5 µg/mL) | – | 794 | 5010 | – |
| NC1=NN(c2ccc(Cl)c(Cl)c2)CC1 | 12600 | 69 (≈ 15.9 µg/mL) | 32 | 2000 | 6310 | – |
| O=C1CCCC(C(=O)NC2=NN(c3ccc(Cl)c(Cl)c3)CC2)N1 (configuration not stated) | 2510 | 416 (≈ 148 µg/mL) | 25 | 501 | 398 | – |
| Cn1cnnc1SCC(=O)Nc1nc(-c2ccc(Cl)c(Cl)c2)cs1 | 20000 | – | – | 794 | – | 10000 |
| Cn1ncc([N+](=O)[O-])c1C(=O)Nc1nc(-c2ccc(Cl)c(Cl)c2)cs1 | 15800 | < 1 | 26 | 200 | 31.6 | – |
| N#CCC(=O)Nc1cc(-c2ccc(Cl)c(Cl)c2)cs1 | 20000 | 12 (≈ 3.73 µg/mL) | 19 | 3980 | 3160 | – |
| N#CCC(=O)Nc1csc(-c2ccc(Cl)c(Cl)c2)c1 | > 50100 | 10 (≈ 3.11 µg/mL) | 12 | 3980 | 15800 | – |
| CC(=O)NC1=NN(c2ccc(Cl)c(Cl)c2)C[C@H]1C | 20000 | 36 (≈ 10.3 µg/mL) | 38 | 3980 | – | – |
| CC(=O)NC1=NN(c2ccc(Cl)c(Cl)c2)[C@@H](C)C1 | 10000 | 125 (≈ 35.8 µg/mL) | 42 | 398 | 501 | – |
| O=C(Nc1nc(-c2ccc(Cl)c(Cl)c2)cs1)C1CC1 | > 50100 | 3 (≈ 0.94 µg/mL) | 22.7 | 251 | 158 | – |
| O=C(NC1=NN(c2ccc(Cl)c(Cl)c2)CC1)c1c(F)cccc1F | 3160 | – | – | 398 | 631 | – |
| CC(=O)Nc1nc(-c2cc(Cl)c(Cl)s2)cs1 | > 50100 | 1 (≈ 0.293 µg/mL) | 28 | 6310 | > 100000 | – |
| CC(=O)Nc1nc(-c2ccc(F)c(Cl)c2)cs1 | > 50100 | 10 (≈ 2.71 µg/mL) | 9.4 | 2510 | 39800 | – |

| SMILES | EC50 [1] [nM] | solubility kinetic at 1 h [2] [µM] | Papp at 3 h [3] [×10⁻⁶ cm/s] | IC50 [4] [nM] | EC50 for c-Abl activation [5] [nM] | EC50 [5] [nM] |
| --- | --- | --- | --- | --- | --- | --- |
| CC(=O)Nc1nc(-c2ccc(Cl)c(Cl)c2)cs1 | 31600 | < 1 | 19.6 | 316 | 2510 | – |
| CC(=O)NC1=NN(c2ccc(Cl)c(Cl)c2)CC1 | 794 | 31 (≈ 8.44 µg/mL) | 36 | 398 | 316 | – |
| CC(=O)Nc1nc(-c2cccc(Cl)c2)cs1 | – | 2 (≈ 0.505 µg/mL) | 34 | > 50100 | 7940 | – |
| O=C(NC1=NN(c2ccc(Cl)c(Cl)c2)CC1)c1ccncc1 | 1580 | 9 (≈ 3.02 µg/mL) | 30.3 | 316 | 200 | – |
| N#CCC(=O)Nc1nsc(-c2ccc(Cl)c(Cl)c2)n1 | 15800 | 69 (≈ 21.6 µg/mL) | 28 | 2510 | 2000 | – |
| CC(=O)NC1=NN(c2ccc(Cl)c(Cl)c2)[C@H](C)C1 | 10000 | 173 (≈ 49.5 µg/mL) | 41 | 1580 | 2000 | – |
| O=C(NC1=NN(c2ccc(Cl)c(Cl)c2)CC1)c1cccnc1F | 1260 | 13 (≈ 4.59 µg/mL) | 57 | 398 | 126 | – |
| CC(=O)Nc1nc(-c2ccc(Cl)c(F)c2)cs1 | 50100 | 5 (≈ 1.35 µg/mL) | 35 | 794 | 3160 | – |
| O=C(Nc1nc(-c2ccc(Cl)c(Cl)c2)cs1)c1cccnc1 | > 50100 | 20 (≈ 7 µg/mL) | 37 | 200 | 398 | – |
| CC(=O)Nc1nc(-c2nc(C)no2)cs1 | – | 186 (≈ 41.7 µg/mL) | 25 | > 50100 | > 100000 | – |
| O=C(Nc1nc(-c2ccc(Cl)c(Cl)c2)cs1)c1cncs1 | > 50100 | 2 (≈ 0.713 µg/mL) | 6.1 | 200 | 501 | – |
| N#CCC(=O)Nc1nc(-c2ccc(Cl)c(Cl)c2)c[nH]1 | 3160 | 14 (≈ 4.13 µg/mL) | 31 | 631 | 1580 | – |
| O=C(NC1=NN(c2ccc(Cl)c(Cl)c2)CC1)c1cccnc1 | 631 | 4 (≈ 1.34 µg/mL) | 30.5 | 251 | 158 | – |
| N#CCC(=O)Nc1cccc(-c2ccc(Cl)c(Cl)c2)n1 | > 50100 | 1 (≈ 0.306 µg/mL) | 21.5 | 1580 | 12600 | – |
| CC(=O)NC1=NN(c2ccc(Cl)c(Cl)c2)C[C@@H]1C | 631 | 32 (≈ 9.16 µg/mL) | 42 | 398 | – | – |
| CC(=O)Nc1nc(-c2ccc(Cl)c(C)c2)cs1 | > 50100 | 1 (≈ 0.267 µg/mL) | 14 | 794 | 31600 | – |
| N#CCC(=O)Nc1csc(-c2ccc(Cl)c(Cl)c2)n1 | 15800 | 2 (≈ 0.624 µg/mL) | 35 | 126 | 1580 | – |
| N#CCC(=O)Nc1nc(-c2ccc(Cl)c(Cl)c2)cs1 | 5010 | 57 (≈ 17.8 µg/mL) | 14.2 | 501 | 1260 | – |
| O=C(NC1=NN(c2ccc(Cl)c(Cl)c2)CC1)c1cncnc1 | 631 | 8 (≈ 2.69 µg/mL) | 35 | 501 | 251 | – |
| N#CCC(=O)Nc1nc(-c2ccc(Cl)c(Cl)c2)ns1 | 10000 | 370 (≈ 116 µg/mL) | 23 | 1000 | 3160 | – |
| O=C(NC1=NN(c2ccc(Cl)c(Cl)c2)CC1)c1ccncn1 | 39800 | 13 (≈ 4.37 µg/mL) | 32 | 1000 | 15800 | – |
| O=C(NC1=NN(c2ccc(Cl)c(Cl)c2)CC1)c1ccnnc1 | 501 | 23 (≈ 7.73 µg/mL) | 36 | 501 | 251 | – |
| N#CCC(=O)Nc1ccn(-c2ccc(Cl)c(Cl)c2)n1 | 7940 | 34 (≈ 10 µg/mL) | 31 | 1580 | 2510 | – |
| CC(=O)NC1=NN(c2ccc(Cl)c(Cl)c2)CC1C (racemic) | 501 | 49 (≈ 14 µg/mL) | 40.5 | 794 | – | – |
| O=C(NC1=NN(c2ccc(Cl)c(Cl)c2)CC1CCO)c1cccnc1 (racemic) | 7940 | 192 (≈ 72.8 µg/mL) | 19 | 251 | 126 | – |
